In patent US20230257373A1, “QUORUM SENSING INHIBITORS AND METHODS OF USE” (priority 2020, published 2023):

Experiments:
LuxR = LuxR (Vibrio harveyi, UniProt P21308); experiment: EMSA DNA binding activity of LuxR; assay type: biochemical, V. campbellii; parameters: made in house; host or cells: E. coli BL21(DE3); conditions: saturating concentrations
Procedure: We noted that Qstatin and PTSP are both predicted to bind in the putative ligand binding pocket of SmcR. It is currently unknown how Qstatin allosterically affects DNA binding through its interactions in the ligand binding domain. […] We therefore also assessed the effect of sulfonamide PTSP on the DNA binding activity of LuxR and SmcR in vitro. […] (Kim et al., 2018).
SmcR and LuxR were purified as described previously. EMSAs were conducted as described previously using oligonucleotides corresponding to the luxC and vvpE promoter sequences. ITC analysis was conducted using purified LuxR or His-tagged SmcR, each in gel-filtration buffer (25 mM Tris pH 7.5, 300 mM NaCl, 0.5 mM EDTA, 1 mM DTT, 2% DMSO). All molecules analyzed were diluted in the same buffer. The samples were degassed for 10 min by vacuum aspiration. Titrations were performed on a Nano-ITC (TA Instruments). […] Thermograms were analyzed using NanoAnalyze software with the independent binding model.

V. campbellii = experiment: Growth of V. campbellii with inhibitor; assay type: cell-based; conditions: high concentrations
Source text: Many sulfonamide-containing compounds are known to target the folate synthesis pathway in bacteria and inhibit growth (bacteriostatic), and thus these “sulfa drugs” have been used as broad-spectrum antibiotics for decades (Hammoudeh et al., 2013, Roland et al., 1979). […] We also tested the stability of the inhibitors in bacterial cultures and the timing of the inhibitory effect.

Sequence of LuxR (P21308 whole entry, the tested form may be a part): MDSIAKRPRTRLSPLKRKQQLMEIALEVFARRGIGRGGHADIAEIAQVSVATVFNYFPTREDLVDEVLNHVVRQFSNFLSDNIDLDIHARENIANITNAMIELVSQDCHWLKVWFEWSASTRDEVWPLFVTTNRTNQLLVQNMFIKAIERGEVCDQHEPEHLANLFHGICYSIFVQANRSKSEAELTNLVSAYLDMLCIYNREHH

O=S(=O)(c1cccs1)n1ccc(-c2ccccc2)n1 [Compound 10B]
DNA binding to LuxR (LuxR): did not alter DNA binding
Growth rate or growth yield (V. campbellii): did not alter growth rate or growth yield
